Where “and” joins values, the source holds several entries; their conditions need not be identical. Equal entries are not always repeated. Entries after “also recorded” stand apart in the source; their conditions may differ.
What was measured:
[1] = target: T1, α1β3γ2 GABAA receptor isoform (Homo sapiens, UniProt P14867+P18507+P28472); experiment: Whole-cell patch clamp, transfected HEK-293T cells; format: cell-based, rat or human; conditions: 10 μM NTP-2014
T1 construct: expressed in transfected cells; host or cells: HEK-293T, transient transfection
Method: (§1) The addition of GABA to […] activates the recombinant expressed GABAA receptors, creating an ion movement through the ion channel in the GABAA receptor. The electrical current generated by the movement of chloride ions into the cells can be quantified.
(§2) HEK-293T cells were transiently transfected with rat or human GABAA receptor subunits. Whole-cell patch clamp recording was performed at −50 mV unless otherwise indicated. Test compounds was diluted from a freshly made stock in DMSO, GABA was prepared from a frozen stock. For each experiment GABA or GABA+a test compound was applied for 5 seconds, and the electrical current generated by the movement of chloride ions into the cells was measured and recorded as a trace of current versus time.
(§3) Compounds described herein (e.g., NTP-2014) were tested at high and low GABA concentrations against multiple GABAA receptor isoforms (e.g., α1β3γ2, α2β3 γ2, α3β3γ2, α3β3γ2, α4β3γ2, α5β3γ2, α6β3γ2). […] NTP-2014 inhibits the currents in the parasynaptic α4 GABAA receptor isoform in GABAergic interneurons. […]

[2] = target: T2, α2β3γ2 GABAA receptor isoform (Homo sapiens, UniProt P18507+P28472+P47869); experiment: Whole-cell patch clamp, transfected HEK-293T cells; format: cell-based, rat or human; conditions: 10 μM NTP-2014; 1 μM and 100 μM GABA
T2 construct: expressed in transfected cells; host or cells: HEK-293T, transient transfection
Method: as §1, §2, §3

[3] = target: T3, α3β3γ2 GABAA receptor isoform (Homo sapiens, UniProt P18507+P28472+P34903); experiment: Whole-cell patch clamp, transfected HEK-293T cells; format: cell-based, rat or human; conditions: 10 μM NTP-2014; 1 μM and 100 μM GABA
T3 construct: expressed in transfected cells; host or cells: HEK-293T, transient transfection
Method: as §1, §2, §3

[4] = target: T4, α5β3γ2 GABAA receptor isoform (Homo sapiens, UniProt P18507+P28472+P31644); experiment: Whole-cell patch clamp, transfected HEK-293T cells; format: cell-based, rat or human; conditions: 10 μM NTP-2014; 1 μM and 100 μM GABA
T4 construct: expressed in transfected cells; host or cells: HEK-293T, transient transfection
Method: as §1, §2, §3

[5] = target: T5, α6β3γ2 GABAA receptor isoform (Homo sapiens, UniProt P18507+P28472+Q16445); experiment: Whole-cell patch clamp, transfected HEK-293T cells; format: cell-based, rat or human
T5 construct: expressed in transfected cells; host or cells: HEK-293T, transient transfection
Method: as §1, §2, §3

[6] = target: T6, δ-containing GABAA receptors (Homo sapiens, UniProt O14764); experiment: Whole-cell patch clamp, transfected HEK-293T cells; format: cell-based, rat or human; conditions: 10 μM NTP-2014
T6 construct: expressed in transfected cells; host or cells: HEK-293T, transient transfection
Method: as §1, §2

[7] = Tolerability after oral administration; format: in vivo
[8] = tested on: mouse; experiment: Formalin test (acute/early and late phase) in mice; format: in vivo
Method: The formalin test was performed according to the method of Tjølsen, et al. (October 1992) “The formalin test: an evaluation of the method.” Pain 51(1): 5-17. An injection of 0.5% formalin is made into the plantar region of the right hind paw of a mouse. This elicits a distinct behavioral profile in response to the formalin injection characterized by the mouse licking the affected paw. The behavior is characteristically biphasic in nature. For example, immediately following the injection the mouse intensely licks the paw for approximately 5-10 minutes (“min.”) This initial behavior was considered phase 1 (acute) and is thought to be mediated primarily by chemical activation of local C-fibers. The acute phase is followed by a brief latent (usually <5 min) period where there is little or no behavioral activity. A more prolonged (about 20 to 30 min) period of licking then ensues which constitutes phase 2 of the response (late phase). See e.g., Tjølsen, et al. (Feb. 7, 1991) “Antinociceptive effect of paracetamol in rats is partly dependent on spinal serotonergic systems. Eur J Pharmacol. 193(2): 193-201 and Tjølsen, et al. (June 1991) Lesions of bulbo-spinal serotonergic or noradrenergic pathways reduce nociception as measured by the formalin test. Acta Physiol Scand. 142(2): 229-36, the disclosures of each of which are hereby incorporated by reference in its entirety.
It is in these tubes that mice are later observed for the licking activity for the duration of the experiment. Following the conditioning, the test substance was administered i.p. in a dose equivalent to the MES ED50 and the mouse returned to its home tube. At the TPE of the drug, the formalin is injected subdermally into the plantar surface of the right hind foot. It is given in a volume of 20 μl with a 27 gauge stainless steel needle attached to a Hamilton syringe. The bevel of the needle was placed facing down toward the skin surface. […] The cumulative length of licking for each 2-min time period was measured. […] Animals are euthanized following the conclusion of the experiment.
Area under the curve (AUC) and subsequent percent of control for drug-treated animal groups is determined using the GraphPad Prism Version 3.03. Total AUC was calculated for both the test and control groups for both the acute and inflammatory phases. The AUC for individual animals for each phase was also calculated and converted to percentage of total AUC of control. The average and S.E.M. for both the drug treated and control percentages were calculated and tested for significant difference.

[9] = Brain levels in rat following IP administration; format: in vivo; conditions: PBx pretreated; for Concentration of NTP-2024 in rat brain: NTP-2024 100 mg/kg IP; for Concentration of NTP-2000 (bumetanide) in rat brain: after NTP-2024 100 mg/kg IP
[10] = tested on: Male CD-1 mice; experiment: Chung (SNL) neuropathic pain study in mice; format: in vivo, mouse; conditions: high dose group (180 mg/kg NTP-2014; 100 mg/kg NTP-2026; gabapentin 100 mg/kg, i.p.)

T5 sequence (Q16445 20-453): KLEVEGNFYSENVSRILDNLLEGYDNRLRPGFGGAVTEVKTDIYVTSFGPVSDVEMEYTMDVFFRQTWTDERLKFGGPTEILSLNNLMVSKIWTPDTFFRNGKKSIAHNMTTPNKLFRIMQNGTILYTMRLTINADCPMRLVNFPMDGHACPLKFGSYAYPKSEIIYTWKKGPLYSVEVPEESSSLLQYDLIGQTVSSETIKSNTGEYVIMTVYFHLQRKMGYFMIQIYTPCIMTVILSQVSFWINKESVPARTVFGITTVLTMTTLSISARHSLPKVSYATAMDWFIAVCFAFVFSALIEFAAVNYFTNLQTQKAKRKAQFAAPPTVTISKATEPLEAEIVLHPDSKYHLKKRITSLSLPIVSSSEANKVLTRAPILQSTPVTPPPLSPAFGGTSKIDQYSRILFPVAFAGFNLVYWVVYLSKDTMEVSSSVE
T5 sequence (P28472 26-473): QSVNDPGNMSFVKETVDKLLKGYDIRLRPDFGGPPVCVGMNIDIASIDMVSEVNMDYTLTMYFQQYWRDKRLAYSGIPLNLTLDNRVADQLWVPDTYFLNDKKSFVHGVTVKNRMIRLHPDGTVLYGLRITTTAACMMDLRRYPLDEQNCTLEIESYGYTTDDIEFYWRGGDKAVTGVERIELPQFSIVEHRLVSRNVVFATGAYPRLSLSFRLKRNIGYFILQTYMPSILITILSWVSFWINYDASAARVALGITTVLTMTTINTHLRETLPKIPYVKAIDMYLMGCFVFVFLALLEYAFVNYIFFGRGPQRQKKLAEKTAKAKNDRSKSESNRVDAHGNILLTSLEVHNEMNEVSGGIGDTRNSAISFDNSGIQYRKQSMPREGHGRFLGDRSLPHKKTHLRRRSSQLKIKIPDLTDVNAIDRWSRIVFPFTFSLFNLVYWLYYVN
T5 sequence (P18507 40-475): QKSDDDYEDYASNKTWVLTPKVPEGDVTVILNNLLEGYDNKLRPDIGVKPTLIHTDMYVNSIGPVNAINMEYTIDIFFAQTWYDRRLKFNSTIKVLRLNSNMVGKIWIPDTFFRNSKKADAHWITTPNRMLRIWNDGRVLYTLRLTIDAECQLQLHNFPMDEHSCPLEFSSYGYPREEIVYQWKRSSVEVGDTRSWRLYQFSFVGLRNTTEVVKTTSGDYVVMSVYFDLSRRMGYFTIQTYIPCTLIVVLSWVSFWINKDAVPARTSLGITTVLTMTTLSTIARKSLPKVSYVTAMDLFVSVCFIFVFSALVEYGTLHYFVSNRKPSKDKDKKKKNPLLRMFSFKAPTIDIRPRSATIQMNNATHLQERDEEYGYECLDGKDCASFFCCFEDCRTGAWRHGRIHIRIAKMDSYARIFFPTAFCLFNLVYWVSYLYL
T4 sequence (P31644 32-462): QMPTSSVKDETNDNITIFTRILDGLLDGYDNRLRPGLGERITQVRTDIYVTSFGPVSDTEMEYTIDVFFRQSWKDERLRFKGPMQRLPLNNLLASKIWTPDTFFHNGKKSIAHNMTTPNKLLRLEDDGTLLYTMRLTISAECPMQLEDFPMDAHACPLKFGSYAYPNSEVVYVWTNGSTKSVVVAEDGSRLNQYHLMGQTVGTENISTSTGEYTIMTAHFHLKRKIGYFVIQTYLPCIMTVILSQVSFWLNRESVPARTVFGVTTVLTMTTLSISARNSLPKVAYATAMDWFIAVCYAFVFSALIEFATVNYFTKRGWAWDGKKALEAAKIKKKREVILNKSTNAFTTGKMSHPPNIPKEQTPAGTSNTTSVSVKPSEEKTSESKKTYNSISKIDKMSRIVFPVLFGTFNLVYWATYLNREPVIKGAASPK
T4 sequence (P28472 26-473): as the sequence (P28472 26-473) above
T4 sequence (P18507 40-475): as the sequence (P18507 40-475) above
T2 sequence (P47869 29-451): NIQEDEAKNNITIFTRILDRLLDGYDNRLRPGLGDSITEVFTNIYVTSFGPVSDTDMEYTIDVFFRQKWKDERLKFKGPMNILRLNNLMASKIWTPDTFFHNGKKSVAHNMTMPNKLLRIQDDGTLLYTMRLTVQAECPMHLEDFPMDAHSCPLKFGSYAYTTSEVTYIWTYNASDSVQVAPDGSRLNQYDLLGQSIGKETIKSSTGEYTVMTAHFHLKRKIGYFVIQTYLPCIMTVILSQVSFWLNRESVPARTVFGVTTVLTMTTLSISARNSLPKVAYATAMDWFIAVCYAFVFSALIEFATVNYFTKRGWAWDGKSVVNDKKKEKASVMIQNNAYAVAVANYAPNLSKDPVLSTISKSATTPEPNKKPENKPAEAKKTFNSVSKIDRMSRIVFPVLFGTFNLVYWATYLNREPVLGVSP
T2 sequence (P28472 26-473): as the sequence (P28472 26-473) above
T2 sequence (P18507 40-475): as the sequence (P18507 40-475) above
T3 sequence (P34903 29-492): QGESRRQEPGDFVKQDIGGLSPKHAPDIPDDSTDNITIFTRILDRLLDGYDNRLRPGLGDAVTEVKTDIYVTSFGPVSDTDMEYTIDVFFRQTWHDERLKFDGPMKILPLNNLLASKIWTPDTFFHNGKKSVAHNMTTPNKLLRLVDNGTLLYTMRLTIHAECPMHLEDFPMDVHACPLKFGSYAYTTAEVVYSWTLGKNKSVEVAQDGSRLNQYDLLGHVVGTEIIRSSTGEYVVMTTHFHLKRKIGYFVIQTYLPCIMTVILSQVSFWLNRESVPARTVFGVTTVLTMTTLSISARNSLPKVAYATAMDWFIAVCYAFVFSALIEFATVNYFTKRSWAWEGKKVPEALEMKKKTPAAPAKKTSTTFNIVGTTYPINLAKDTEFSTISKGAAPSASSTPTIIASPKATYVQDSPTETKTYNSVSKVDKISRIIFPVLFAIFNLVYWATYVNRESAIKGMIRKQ
T3 sequence (P28472 26-473): as the sequence (P28472 26-473) above
T3 sequence (P18507 40-475): as the sequence (P18507 40-475) above
T1 sequence (P14867 28-456): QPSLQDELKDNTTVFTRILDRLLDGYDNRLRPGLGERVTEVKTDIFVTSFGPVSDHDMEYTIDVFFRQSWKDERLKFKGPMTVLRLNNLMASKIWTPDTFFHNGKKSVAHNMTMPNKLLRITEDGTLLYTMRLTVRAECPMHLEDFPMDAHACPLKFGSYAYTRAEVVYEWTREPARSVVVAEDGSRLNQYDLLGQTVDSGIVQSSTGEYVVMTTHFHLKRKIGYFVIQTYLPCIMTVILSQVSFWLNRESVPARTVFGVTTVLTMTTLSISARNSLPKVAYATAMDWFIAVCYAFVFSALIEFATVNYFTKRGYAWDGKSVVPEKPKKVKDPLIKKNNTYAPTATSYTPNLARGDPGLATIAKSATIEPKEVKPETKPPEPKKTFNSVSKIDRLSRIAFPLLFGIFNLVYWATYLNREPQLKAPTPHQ
T1 sequence (P28472 26-473): as the sequence (P28472 26-473) above
T1 sequence (P18507 40-475): as the sequence (P18507 40-475) above
T6 sequence (O14764 25-452): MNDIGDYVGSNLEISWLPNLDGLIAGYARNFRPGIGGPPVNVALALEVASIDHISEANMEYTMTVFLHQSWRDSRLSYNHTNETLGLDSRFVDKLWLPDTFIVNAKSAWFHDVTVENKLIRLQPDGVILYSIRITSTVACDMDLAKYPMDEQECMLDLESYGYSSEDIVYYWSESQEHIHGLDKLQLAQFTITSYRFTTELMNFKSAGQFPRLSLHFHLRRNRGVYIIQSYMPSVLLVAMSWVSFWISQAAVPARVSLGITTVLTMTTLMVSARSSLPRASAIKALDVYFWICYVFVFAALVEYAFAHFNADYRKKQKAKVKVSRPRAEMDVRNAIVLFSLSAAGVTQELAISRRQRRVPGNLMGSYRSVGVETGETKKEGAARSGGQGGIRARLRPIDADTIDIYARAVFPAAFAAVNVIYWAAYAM

For `CCCCN(CCCC)c1cc(C(=O)O)cc(S(N)(=O)=O)c1Oc1ccccc1` [NTP-2014, 3-Aminosulfonyl-5-N,N-dibutylamino-4-phenoxybenzoic acid], the “Effect on current, α1β3γ2 GABAA receptor isoform” value [1] was “no significant activation; also recorded: amplitude of the current was not increased”, the “Effect on current, α2 containing isoform” value [2] was “slowed the decay rate; also recorded: inhibited” and the “Effect on current, α3 containing isoform” value [3] was “slowed the decay rate; also recorded: inhibited”. For the same compound, the “Effect on current, α5 containing isoform” value [4] was “slowed the decay rate; also recorded: inhibited”, the “Effect on currents, α6 containing receptors” value ([5]; 0.1, 1, 10 μM GABA) was “inhibited by NTP-2014 at higher GABA concentrations, but unaffected at lower GABA concentrations” and the EC50 ([5]; FIG. 41C, read-out: EC50 in α6 containing GABAA receptor isoforms) was 20.2 µM. For the same compound, the IC50 ([5]; read-out: IC50, receptors containing the α6 subunit) was 10 to 30 µM, the “Effect on δ-containing receptors” value [6] was “unaffected” and the CNS side effects ([7]; after oral administration) was “no CNS side effects”. For the same compound, the Toxicological tolerability ([7]; in vivo) was “well-tolerated”.
With `CCCCNc1cc(C(=O)NN2CCOCC2)cc(S(N)(=O)=O)c1Oc1ccccc1` [NTP-2024, N-Morpholinyl 3-Aminosulfonyl-5-N-butylamino-4-phenoxybenzamide] the “Decrease in pain, Formalin Paw Test (Mice) - Late Phase” value ([8]; 346 μmol/kg, 150 mg/kg, p < 0.01) was 150 mg/kg; >80%, the “Decrease in pain, Formalin Paw Test (Mice) - Early Phase” value ([8]; 346 μmol/kg, 150 mg/kg, p < 0.05) was 150 mg/kg; ~40%; and the “% of Control, Acute” value ([8]; 150 mg/kg i.p., mice) was 58.55%. The “% of Control, Late Phase” value ([8]; 150 mg/kg i.p., mice) was 12.54%, the “Treated (AUC of licking time), Acute” value ([8]; 150 mg/kg i.p., mice) was 80.03 and the “Treated (AUC of licking time), Late Phase” value ([8]; 150 mg/kg i.p., mice) was 76.39. The “Concentration of NTP-2024 in rat brain” value ([9]; 15 m) was 283.783 ng/mL and 277.985 ng/mL and 226.803 ng/mL, the “Concentration of NTP-2024 in rat brain” value ([9]; 30 m) was 223.370 ng/mL and 340.460 ng/mL and 348.182 ng/mL and the “Concentration of NTP-2024 in rat brain” value ([9]; 2 h) was 124.854 ng/mL and 112.217 ng/mL and 154.415 ng/mL. For the same compound, the “Concentration of NTP-2024 in rat brain” value ([9]; 4 h) was 26.6338 ng/mL and 23.4893 ng/mL and 37.1694 ng/mL, the “Concentration of NTP-2024 in rat brain” value ([9]; 6 h) was 25.4146 ng/mL and 18.4619 ng/mL and 25.7880 ng/mL and the “Concentration of NTP-2000 (bumetanide) in rat brain” value ([9]; 15 m) was “BLQ (Below Limit of Quantitation (<1 ng/mL))”. The “Concentration of NTP-2000 (bumetanide) in rat brain” value ([9]; 2 h) was “BLQ (Below Limit of Quantitation (<1 ng/mL))”, the “Concentration of NTP-2000 (bumetanide) in rat brain” value ([9]; 4 h) was “BLQ (Below Limit of Quantitation (<1 ng/mL))” and the “Concentration of NTP-2000 (bumetanide) in rat brain” value ([9]; 6 h) was “BLQ (Below Limit of Quantitation (<1 ng/mL))”.
For `CCCCNc1cc(C(=O)N(C)CCCN(C)C)cc(S(N)(=O)=O)c1Oc1ccccc1` [NTP-2026, N-(3-(Dimethylamino)propyl)-N-methyl 3-Aminosulfonyl-5-N-butylamino-4-phenoxybenzamide], the Sedation [10] was “Some minor sedation; also recorded: tactile hypersensitivity. Some minor”.
